# Measured values: patent publication US20200247815A1, “PYRAZOLYL-CONTAINING TRICYCLIC DERIVATIVE, PREPARATION METHOD THEREFOR AND USE THEREOF” (Jiangsu Hansoh Pharmaceutical Group Co., Ltd., priority 2017, published 2020)
# Key:
# [1] = biological target: T1, ERK-2 kinase (Homo sapiens, UniProt P28482); experiment: Inhibition of ERK-2 kinase activity (LANCE Ultra TR-FRET); assay type: biochemical; conditions: ERK-2 enzyme 0.08 nM, ATP 38.15 μM
# T1 construct: purchased Invitrogen PV3313
# Method: The object of this test example is to determine the inhibition effect of the compound on ERK-2 kinase activity. In vitro ERK-2 kinase analysis was carried out by using LANCE Ultra (Perkin Elmer) method. The reaction (reaction system 10 μL) was conducted by adding 2.5 μL of test compound/DMSO (final 4%, V/V, diluted to 10 concentrations (400 nM to 0.02 nM) using a 1:3 dilution scheme), 5 μL of a mixed solution of ERK-2 enzyme (Invitrogen, # PV3313, final concentration: 0.08 nM) and substrate Ulight-MBP peptide (Perkin Elmer, # TRF0109-M, final concentration: 0.5 μM) formulated with a kinase buffer (50 mM Hepes pH 7.4, 10 mM MgCl2, 1 mM EGTA 0.01% Triton X-100, 2 mM DTT) and 2.5 μL of ATP solution (Invitrogen, # PV3227, final concentration: 38.15 μM) formulated with the same buffer successively to a 384-well plate (Perkin Elmer OPTIPLATE™) and mixing well. The reaction mixture was incubated at room temperature for 60 minutes. The reaction was stopped by adding IX LANCE Detection buffer (PerkinElmer # CR97-100) diluted with ultra-pure water, mM EDTA (Invitrogen #15575038) and 1 nM Eu-anti-p-MBP (PerkinElmer # TRF0201-M) antibody in 10 μL/well. The plate was incubated at room temperature for 60 minutes. Excitation reading was performed on Synergy H1 Hybird Reader, H1MFD (Biotek) with an excitation wavelength of 320 nm. TR-FRET rate was calculated by dividing the acceptor emission signal (signal value at 665 nM) by the Eu donor emission signal (signal value at 615 nM). The inhibition TR-FRET rate of the well treated by the compound was calculated relative to the Max signal (DMSO control) and Min signal (no enzyme added) control wells on the plate {% inhibition rate=100−[(test compound−Min average)]/(Max average−Min average)×100}. The 10 concentrations of the compound after 4-fold dilution of the reaction system were 100 nM to 0.005 nM. Abs_IC50 value was calculated by using GraphPad prism fits percentage inhibition rate and ten-point concentration data in a 4-parameter non-linear logic formula.
# [2] = biological target: T2, ERK-1 kinase (Homo sapiens, UniProt P27361); experiment: Inhibition of ERK-1 kinase activity (LANCE Ultra TR-FRET); assay type: biochemical; conditions: ERK1 enzyme 0.4 nM, ATP 38.15 μM
# T2 construct: purchased Invitrogen PV3311
# T2 sequence (P27361 whole entry): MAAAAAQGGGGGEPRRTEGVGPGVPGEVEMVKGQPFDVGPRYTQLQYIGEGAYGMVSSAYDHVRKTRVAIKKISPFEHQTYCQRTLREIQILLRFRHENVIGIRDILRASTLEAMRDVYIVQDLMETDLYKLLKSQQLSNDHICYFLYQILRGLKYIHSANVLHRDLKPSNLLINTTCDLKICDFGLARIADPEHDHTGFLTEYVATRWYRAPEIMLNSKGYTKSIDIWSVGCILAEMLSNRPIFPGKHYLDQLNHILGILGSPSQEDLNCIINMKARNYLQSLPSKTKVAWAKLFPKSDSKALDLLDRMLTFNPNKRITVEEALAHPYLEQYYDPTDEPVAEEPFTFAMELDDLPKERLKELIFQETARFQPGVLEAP
# Method: The object of this test example is to determine the inhibition effect of the compound on ERK-1 kinase activity. In vitro ERK-1 kinase analysis was carried out by using LANCE Ultra (Perkin Elmer) method. The reaction (reaction system 10 μL) was conducted by adding 2.5 μL of test compound/DMSO (final 4%, V/V, diluted to 10 concentrations (400 nM to 0.02 nM) using a 1:3 dilution scheme), 5 μL of a mixed solution of ERK1 enzyme (Invitrogen, # PV3311, final concentration: 0.4 nM) and substrate Ulight-MBP peptide (Perkin Elmer, # TRF0109-M, final concentration: 0.5 μM) formulated with a kinase buffer (50 mM Hepes pH 7.4, 10 mM MgCl2, 1 mM EGTA, 0.01% Triton X-100, 2 mM DTT) and 2.5 μL of ATP solution (Invitrogen, # PV3227, final concentration: 38.15 μM) formulated with the same buffer successively to a 384-well plate (Perkin Elmer OPTIPLATE™) and mixing well. The reaction mixture was incubated at room temperature for 60 minutes. The reaction was stopped by adding 1× LANCE Detection buffer (PerkinElmer # CR97-100) diluted with ultra-pure water, mM EDTA (Invitrogen #15575038) and 1 nM Eu-anti-p-MBP (PerkinElmer # TRF0201-M) antibody in 10 μL/well. The plate was incubated at room temperature for 60 minutes. Excitation reading was performed on Synergy H1 Hybird Reader, H1MFD (Biotek) with an excitation wavelength of 320 nm. TR-FRET rate was calculated by dividing the acceptor emission signal (signal value at 665 nM) by the Eu donor emission signal (signal value at 615 nM). The inhibition TR-FRET rate of the well treated by the compound was calculated relative to the Max signal (DMSO control) and Min signal (no enzyme added) control wells on the plate {% inhibition rate=100−[(test compound−Min average)]/(Max average−Min average)×100}. The 10 concentrations of the compound after 4-fold dilution of the reaction system were 100 nM to 0.005 nM. Abs_IC50 value was calculated by using GraphPad prism fits percentage inhibition rate and ten-point concentration data in a 4-parameter non-linear logic formula.
# [3] = tested on: pancreatic cancer tumor cell Mia Paca 2; experiment: Inhibition of tumor cell proliferation (CellTiter-Glo); assay type: cell-based; conditions: Homo sapiens, Miapaca-2 cell, 3-7 days
# Method: The object of this test example is to determine the inhibition effect of the present compound on tumor cell proliferation activity. The inhibition activity of the compound on tumor cell proliferation was determined by CellTiter-Glo method, and the half inhibitory concentration IC50 of the compound for inhibiting cell proliferation activity was obtained, 50-100 μL of tumor cell suspension was inoculated in a 96-well cell culture plate with a density of 1˜5*10^4 cells/ml. The plate was incubated in an incubator for 16˜24 hours (37° C., 5% CO2). Solutions of test compounds at different concentrations obtained by gradient dilution were added to the cells in the plate. The plate was incubated in an incubator for 3-7 days (37° C., 5% CO2), 50˜100 μL of CellTiter-Glo reagent was added to each well. The plate was shaked for 10 minutes, and left to stand at room temperature for 10 minutes. The value of the chemiluminescence signal was determined by a microplate reader. The inhibition rate was calculated from the value of the chemiluminescence signal. IC50 of the compound was obtained by curve fitting based on the inhibition rate at different concentrations.
# The inhibition effect of the present compound on pancreatic cancer tumor cell Mia Paca 2 proliferation activity was determined by the test, and the obtained IC50 value is shown in Table 2.
# T1 sequence (P28482 whole entry): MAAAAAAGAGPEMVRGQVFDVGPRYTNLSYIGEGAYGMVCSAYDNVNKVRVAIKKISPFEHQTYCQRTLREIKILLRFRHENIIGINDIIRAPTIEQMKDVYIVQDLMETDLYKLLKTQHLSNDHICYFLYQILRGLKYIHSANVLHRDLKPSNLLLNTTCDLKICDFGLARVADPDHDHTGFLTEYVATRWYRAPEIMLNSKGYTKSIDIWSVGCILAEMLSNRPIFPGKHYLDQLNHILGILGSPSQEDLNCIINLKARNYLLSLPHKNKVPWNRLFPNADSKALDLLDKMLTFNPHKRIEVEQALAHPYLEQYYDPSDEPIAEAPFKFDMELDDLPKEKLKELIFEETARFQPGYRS
Structure (SMILES),IC50 [1] [nM],IC50 [2] [nM],IC50 [3] [nM]
"CC(C)Oc1ccc(-c2n[nH]c3cc4[nH]c(C(=O)N[C@H](C)c5ccccc5)nc4cc23)cn1 [Example 85, (R)-3-(6-isopropoxypyridin-3-yl)-N-(1-phenylethyl)-1,7-dihydroimidazo[4,5-f]indazole-6-carboxamide]",3.08,3.43,–
"COc1cc(-c2n[nH]c3cc4[nH]c(C(=O)N[C@H](C)c5ccccc5)nc4cc23)ccn1 [Example 86, (R)-3-(2-methoxypyridin-4-yl)-N-(1-phenylethyl)-1,7-dihydroimidazo[4,5-f]indazole-6-carboxamide]",1.33,2.4,–
"C[C@@H](NC(=O)c1nc2cc3c(-c4ccncc4)n[nH]c3cc2[nH]1)c1cccc(C2CC2)c1 [Example 88, (R)—N-(1-(3-cyclopropylphenyl)ethyl)-3-(pyridin-4-yl)-1,7-dihydroimidazo[4,5-f]indazole-6-carboxamide]",0.99,2.27,–
"CN(C)C[C@@H](NC(=O)c1nc2cc3c(-c4ccncc4)n[nH]c3cc2[nH]1)c1ccccc1 [Example 90, (S)—N-(2-(dimethylamino)-1-phenylethyl)-3-(pyridin-4-yl)-1,7-dihydroimidazo[4,5-f]indazole-6-carboxamide]",1.67,1.77,–
"C[C@@H](NC(=O)c1nc2cc3c(C4=CCC(=O)CC4)n[nH]c3cc2[nH]1)c1ccccc1 [Example 94, (R)-3-(4-oxocyclohex-1-en-1-yl)-N-(1-phenylethyl)-1,7-dihydroimidazo[4,5-f]indazole-6-carboxamide]",5.85,2.24,–
"COc1ccc(-c2n[nH]c3cc4[nH]c(C(=O)N[C@H](C)c5ccccc5)nc4cc23)cc1 [Example 95, (R)-3-(4-methoxyphenyl)-N-(1-phenylethyl)-1,7-dihydroimidazo[4,5-f]indazole-6-carboxamide]",2.17,4.42,–
"CC(C)c1cccc([C@@H](C)NC(=O)c2nc3cc4c(-c5ccncc5)n[nH]c4cc3[nH]2)c1 [Example 98, (R)—N-(1-(3-Isopropylphenyl)ethyl)-3-(pyridin-4-yl)-1,7-dihydroimidazo[4,5-f]indazole-6-carboxamide]",1.02,3.32,–
"O=C(NCc1ccccc1)c1nc2cc3c(-c4ccncc4)n[nH]c3cc2[nH]1 [Example 114, N-benzyl-3-(pyridin-4-yl)-1,7-dihydroimidazo[4,5-f]indazole-6-carboxamide]",1.07,2.86,–

# Now those with a lower IC50 [1], led by results:
IC50 [1] [nM],IC50 [2] [nM],IC50 [3] [nM],Structure (SMILES)
0.93,2.61,–,"COc1ccc(-c2n[nH]c3cc4[nH]c(C(=O)N[C@H](C)c5ccccc5)nc4cc23)cn1 [Example 84, (R)-3-(6-methoxypyridin-3-yl)-N-(1-phenylethyl)-1,7-dihydroimidazo[4,5-f]indazole-6-carboxamide]"
0.87,1.31,–,"O=C(N[C@H](CNCC(F)F)c1ccccc1)c1nc2cc3c(-c4ccncc4)n[nH]c3cc2[nH]1 [Example 89, (S)—N-(2-((2,2-difluoroethyl)amino)-1-phenylethyl)-3-(pyridin-4-yl)-1,7-dihydroimidazo[4,5-f]indazole-6-carboxamide]"
0.85,2.18,–,"CN(NC(=O)c1nc2cc3c(-c4ccncc4)n[nH]c3cc2[nH]1)c1ccccc1 [Example 77, N′-methyl-N′-phenyl-3-(pyridin-4-yl)-1,7-dihydroimidazo[4,5-f]indazole-6-carbohydrazide]"
0.51,0.45,110,"C[C@@H](NC(=O)c1nc2cc3c(-c4ccncc4)n[nH]c3cc2[nH]1)c1cccc(Br)c1 [Example 18, (R)—N-(1-(3-bromophenyl)ethyl)-3-(pyridin-4-yl)-1,7-dihydroimidazo[4,5-f]indazole-6-carboxamide]"
0.3,0.75,–,"C[C@@H](NC(=O)c1nc2cc3c(-c4cc[n+]([O-])cc4)n[nH]c3cc2[nH]1)c1ccccc1 [Example 97, (R)-4-(6-((1-phenylethyl)carbamoyl)-1,7-dihydroimidazo[4,5-f]indazol-3-yl)pyridine-N-oxide]"
0.24,2.5,–,"O=C(CNC(=O)c1nc2cc3c(-c4ccncc4)n[nH]c3cc2[nH]1)c1ccccc1 [Example 72, N-(2-oxo-2-phenylethyl)-3-(pyridin-4-yl)-1,7-dihydroimidazo[4,5-f]indazole-6-carboxamide]"
0.21,0.65,–,"COC(CNC(=O)c1nc2cc3c(-c4ccncc4)n[nH]c3cc2[nH]1)c1ccccc1 (stereo not drawn) [Example 78, N-(2-methoxy-2-phenylethyl)-3-(pyridin-4-yl)-1,7-dihydroimidazo[4,5-f]indazole-6-carboxamide]"
0.2,0.35,159,"COc1cccc([C@@H](C)NC(=O)c2nc3cc4c(-c5ccncc5)n[nH]c4cc3[nH]2)c1 [Example 19, (R)—N-(1-(3-methoxyphenyl)ethyl)-3-(pyridin-4-yl)-1,7-dihydroimidazo[4,5-f]indazole-6-carboxamide]"
0.17,0.3,59.1,"Cc1cccc([C@@H](C)NC(=O)c2nc3cc4c(-c5ccncc5)n[nH]c4cc3[nH]2)c1 [Example 21, (R)-3-(pyridin-4-yl)-N-(1-(m-tolyl)ethyl)-1,7-dihydroimidazo[4,5-f]indazole-6-carboxamide]"
0.17,0.26,99.4,"C[C@@H](NC(=O)c1nc2cc3c(-c4ccncc4)n[nH]c3cc2[nH]1)c1cccc(Cl)c1 [Example 22, (R)—N-(1-(3-chlorophenyl)ethyl)-3-(pyridin-4-yl)-1,7-dihydroimidazo[4,5-f]indazole-6-carboxamide]"
0.08,0.25,–,"O=C(NNc1ccccc1)c1nc2cc3c(-c4ccncc4)n[nH]c3cc2[nH]1 [Example 76, N′-phenyl-3-(pyridin-4-yl)-1,7-dihydroimidazo[4,5-f]indazole-6-carbohydrazide]"
